Test results taken from patent publication US10301261B2, “Substituted indoles as modulators of ROR-gamma” (Vitae Pharmaceuticals, LLC, priority 2015, dated 2019).

How the values were obtained:
[1] = biological target: recombinant RORγ Ligand Binding Domain (LBD) protein (Homo sapiens (Human), UniProt P51449); assay: Radio-Ligand RORγ Binding Assay (Assay 1); settings: radio-ligand 25-hydroxy [26,27-3H]-cholesterol competition
Experimental: Radio-Ligand RORγ Binding Assay (Assay 1)
Compounds described herein were tested for ability to bind to RORγ in a cell-free competition assay with commercially available radio-ligand (RL), 25-hydroxy [26,27-^3H]-cholesterol (PerkinElmer, Cat. # NET674250UC), for a ligand binding site on a recombinant RORγ Ligand Binding Domain (LBD) protein expressed as a 6×His-Glutathione-S-Transferase (GST) fusion. […] The plate was shaken at 700 rpm for 20 min and incubated for 10 min at rt, after which 40 μL of poly-Lys YSi SPA beads (PerkinElmer, Cat. # RPNQ0010) were added to achieve 50 μg of the beads per well. The plate was incubated on an orbital shaker for 20 min and then for 10 min without agitation at rt. SPA signal for tritium beta radiation was registered on PerkinElmer Microbeta plate reader. […] The percent inhibition vs. concentration data were fit into a four-parameter model, and IC50 values were calculated from the fit as the concentrations corresponding to the inflection points on the dose-response curves. […]

[2] = biological target: full-length RORγt in Jurkat cells (Homo sapiens (Human), UniProt P51449); assay: RORγt 5×RORE Assay in Jurkat Cells (Assay 2); type: cell-based; settings: RORγt 5×RORE Nanoluc reporter
Experimental: [formula] RORγt 5×RORE Assay in Jurkat Cells (Assay 2)
Compounds described herein were tested for RORγ inverse agonist activity in a cell-based, transcriptional activity assay. […] (Promega, Cat. # N1021) using KpnI and HindIII restriction sites. […] Tested compounds were added to the cells in the same media (final concentration of DMSO was 0.1% (v/v)), and the plates were incubated at 37° C./5% CO2 for 16-18 hrs. Luciferase activity in the conditioned supernatants was determined with NanoGlo® assay reagents (Promega, Cat.# N1130).

Sequence of full-length RORγt in Jurkat cells (P51449 other isoform, or with tags, fused parts or gaps): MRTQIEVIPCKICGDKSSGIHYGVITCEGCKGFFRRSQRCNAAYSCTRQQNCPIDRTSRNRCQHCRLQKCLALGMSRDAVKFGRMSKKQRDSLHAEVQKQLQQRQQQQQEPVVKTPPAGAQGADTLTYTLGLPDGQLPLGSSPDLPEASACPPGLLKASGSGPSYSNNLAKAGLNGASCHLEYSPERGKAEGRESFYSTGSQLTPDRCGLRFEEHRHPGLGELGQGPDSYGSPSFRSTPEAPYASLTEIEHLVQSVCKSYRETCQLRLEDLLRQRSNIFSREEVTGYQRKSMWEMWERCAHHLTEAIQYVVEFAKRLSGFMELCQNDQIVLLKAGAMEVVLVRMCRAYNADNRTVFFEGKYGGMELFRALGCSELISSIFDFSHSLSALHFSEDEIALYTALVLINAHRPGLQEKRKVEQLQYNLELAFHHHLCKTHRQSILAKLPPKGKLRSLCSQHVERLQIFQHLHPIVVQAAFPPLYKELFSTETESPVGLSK
Sequence of recombinant RORγ Ligand Binding Domain (LBD) protein (P51449 269-508): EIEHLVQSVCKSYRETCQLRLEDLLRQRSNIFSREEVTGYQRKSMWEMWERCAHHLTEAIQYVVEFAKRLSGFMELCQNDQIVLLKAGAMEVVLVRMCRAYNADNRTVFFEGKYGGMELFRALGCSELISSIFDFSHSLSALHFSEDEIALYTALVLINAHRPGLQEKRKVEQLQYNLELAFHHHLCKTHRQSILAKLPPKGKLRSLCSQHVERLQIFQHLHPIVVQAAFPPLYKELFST

| SMILES | Ki [1] [nM] | IC50 [2] [nM] |
| --- | --- | --- |
| CCS(=O)(=O)c1ccc(CNC(=O)c2ccc3c(c2)nc(O[C@H]2CC[C@@H](C(F)(F)F)CC2)n3CC(C)C)cc1 [BE-4.2, N-(4-(ethylsulfonyl)benzyl)-1-isobutyl-2-(((1s,4s)-4-(trifluoromethyl)cyclohexyl)oxy)-1H-benzo[d]imidazole-5-carboxamide] | < 100 | > 1000 |
| CCS(=O)(=O)c1ccc(CNC(=O)c2ccc3c(c2)nc(C[C@H]2CC[C@H](C(F)(F)F)CC2)n3C2CC2)cc1 [BE-18.1, 1-cyclopropyl-N-(4-(ethylsulfonyl)benzyl)-2-((trans-4-(trifluoromethyl)cyclohexyl)methyl)-1H-benzo[d]imidazole-5-carboxamide] | < 100 | < 100 |
| CCS(=O)(=O)c1ccc(CNC(=O)c2ccc3c(c2)nc(C[C@H]2CC[C@@H](C(F)(F)F)CC2)n3C2CC2)cc1 [BE-18.2, 1-cyclopropyl-N-(4-(ethylsulfonyl)benzyl)-2-((cis-4-(trifluoromethyl)cyclohexyl)methyl)-1H-benzo[d]imidazole-5-carboxamide] | < 100 | > 1000 |
| CCS(=O)(=O)c1ccc(CNC(=O)c2ccc3c(c2)nc(C[C@H]2CC[C@H](C(F)(F)F)CC2)n3CC(C)C)cc1 [BE-19.1, N-(4-(ethylsulfonyl)benzyl)-1-isobutyl-2-(((1r,4r)-4-(trifluoromethyl)cyclohexyl)methyl)-1H-benzo[d]imidazole-5-carboxamide] | < 100 | < 100 |
| CCS(=O)(=O)c1ccc(CNC(=O)c2ccc3c(c2)nc(C[C@H]2CC[C@@H](C(F)(F)F)CC2)n3CC(C)C)cc1 [BE-19.2, N-(4-(ethylsulfonyl)benzyl)-1-isobutyl-2-(((1s,4s)-4-(trifluoromethyl)cyclohexyl)methyl)-1H-benzo[d]imidazole-5-carboxamide] | < 100 | > 1000 |
| CCn1c(C[C@H]2CC[C@H](C(F)(F)F)CC2)nc2cc(C(=O)NCc3ccc(S(=O)(=O)CC)cc3)ccc21 [BE-20, 1-ethyl-N-(4-(ethylsulfonyl)benzyl)-2-(((1r,4r)-4-(trifluoromethyl)cyclohexyl)methyl)-1H-benzo[d]imidazole-5-carboxamide] | < 100 | < 100 |
| CCS(=O)(=O)c1ccc([C@H](CCO)NC(=O)c2ccc3c(c2)nc(C[C@H]2CC[C@H](C(F)(F)F)CC2)n3C2CC2)cc1 [BE-25, 1-cyclopropyl-N-((S)-1-(4-(ethylsulfonyl)phenyl)-3-hydroxypropyl)-2-(((1r,4S)-4-(trifluoromethyl)cyclohexyl)methyl)-1H-benzo[d]imidazole-5-carboxamide] | < 100 | < 100 |
| CCS(=O)(=O)c1ccc(CNC(=O)c2ccc3c(c2)nc(C[C@H]2CC[C@H](C(F)(F)F)CC2)n3CC(C)C)nc1 [BE-26.1, N-((5-(ethylsulfonyl)pyridin-2-yl)methyl)-1-isobutyl-2-(((1r,4r)-4-(trifluoromethyl)cyclohexyl)methyl)-1H-benzo[d]imidazole-5-carboxamide] | < 100 | > 1000 |
| CCS(=O)(=O)c1ccc(CNC(=O)c2ccc3c(c2)nc(C[C@H]2CC[C@@H](C(F)(F)F)CC2)n3CC(C)C)nc1 [BE-26.2, N-((5-(ethylsulfonyl)pyridin-2-yl)methyl)-1-isobutyl-2-(((1s,4s)-4-(trifluoromethyl)cyclohexyl)methyl)-1H-benzo[d]imidazole-5-carboxamide] | < 100 | > 1000 |
| CCS(=O)(=O)c1ccc(CNC(=O)c2ccc3c(c2)nc(C[C@H]2CC[C@H](C(F)(F)F)CC2)n3C2CC2)nc1 [BE-27.1, 1-cyclopropyl-N-((5-(ethylsulfoyl)pyridin-2-yl)methyl)-2-(((1r,4r)-4-(trifluoromethyl)cyclohexyl)methyl)-1H-benzo[d]imidazole-5-carboxamide] | < 100 | < 100 |
| CCS(=O)(=O)c1ccc(CNC(=O)c2ccc3c(c2)nc(C[C@H]2CC[C@@H](C(F)(F)F)CC2)n3C2CC2)nc1 [BE-27.2, 1-cyclopropyl-N-((5-(ethylsulfonyl)pyridin-2-yl)methyl)-2-(((1s,4s)-4-(trifluoromethyl)cyclohexyl)methyl)-1H-benzo[d]imidazole-5-carboxamide] | < 100 | > 1000 |
| CCS(=O)(=O)c1ccc([C@H](CO)NC(=O)c2ccc3c(c2)nc(C[C@H]2CC[C@H](C(F)(F)F)CC2)n3C2CC2)nc1 [BE-28, 1-cyclopropyl-N-((R)-1-(5-(ethylsulfonyl)pyridin-2-yl)-2-hydroxyethyl)-2-(((1r,4R)-4-(trifluoromethyl)cyclohexyl)methyl)-1H-benzo[d]imidazole-5-carboxamide] | < 100 | < 100 |

Continued, values first:

| Ki [1] [nM] | IC50 [2] [nM] | SMILES |
| --- | --- | --- |
| < 100 | < 100 | CCn1c(Oc2ccc(C(F)(F)F)cc2)nc2cc(C(=O)NCc3ccc(S(=O)(=O)CC)cc3)ccc21 [BE-5, 1-ethyl-N-(4-(ethylsulfonyl)benzyl)-2-(4-(trifluoromethyl)phenoxy)-1H-benzo[d]imidazole-5-carboxamide] |
| < 100 | < 100 | CCS(=O)(=O)c1ccc(CNC(=O)c2ccc3c(c2)nc(Oc2ccc(C(F)(F)F)cc2)n3C2CC2)cc1 [BE-6, 1-cyclopropyl-N-(4-(ethylsulfonyl)benzyl)-2-(4-(trifluoromethyl)phenoxy)-1H-benzo[d]imidazole-5-carboxamide] |
| < 100 | < 100 | CCS(=O)(=O)c1ccc([C@H](CO)NC(=O)c2ccc3c(c2)nc(Oc2ccc(C(F)(F)F)cc2)n3C2CC2)cc1 [BE-7, (R)-1-cyclopropyl-N-(1-(4-(ethylsulfonyl)phenyl)-2-hydroxyethyl)-2-(4-(trifluoromethyl)phenoxy)-1H-benzo[d]imidazole-5-carboxamide] |
| < 100 | < 100 | CCn1c(Oc2ccc(C(F)(F)F)cc2)nc2cc(C(=O)N[C@@H](CO)c3ccc(S(=O)(=O)CC)cc3)ccc21 [BE-8, (R)-1-ethyl-N-(1-(4-(ethylsulfonyl)phenyl)-2-hydroxyethyl)-2-(4-(trifluoromethyl)phenoxy)-1H-benzo[d]imidazole-5-carboxamide] |
| < 100 | < 100 | CCn1c(Oc2ccc(OC(F)(F)F)cc2)nc2cc(C(=O)N[C@@H](CO)c3ccc(S(=O)(=O)CC)cc3)ccc21 [BE-9, (R)-1-ethyl-N-(1-(4-(ethylsulfonyl)phenyl)-2-hydroxyethyl)-2-(4-(trifluoromethoxy)phenoxy)-1H-benzo[d]imidazole-5-carboxamide] |
| < 100 | < 100 | CCn1c(Oc2ccc(C(F)(F)F)cc2)nc2cc(C(=O)N[C@@H](CN)c3ccc(S(=O)(=O)CC)cc3)ccc21 [BE-11, (R)-N-(2-amino-1-(4-(ethylsulfonyl)phenyl)ethyl)-1-ethyl-2-(4-(trifluoromethyl)phenoxy)-1H-benzo[d]imidazole-5-carboxamide] |
| < 100 | > 1000 | CCn1c(OCC2CCC(F)(F)CC2)nc2cc(C(=O)N[C@@H](CO)c3ccc(S(=O)(=O)CC)cc3)ccc21 [BE-12, (R)-2-((4,4-difluorocyclohexyl)methoxy)-1-ethyl-N-(1-(4-(ethylsulfonyl)phenyl)-2-hydroxyethyl)-1H-benzo[d]imidazole-5-carboxamide] |
| < 100 | > 1000 | CCn1c(OCC2CC(F)(F)C2)nc2cc(C(=O)N[C@@H](CO)c3ccc(S(=O)(=O)CC)cc3)ccc21 [BE-13, (R)-2-((3,3-difluorocyclobutyl)methoxy)-1-ethyl-N-(1-(4-(ethylsulfonyl)phenyl)-2-hydroxyethyl)-1H-benzo[d]imidazole-5-carboxamide] |
| < 100 | < 100 | CCn1c(OCc2ccc(C(F)(F)F)cc2)nc2cc(C(=O)N[C@@H](CO)c3ccc(S(=O)(=O)CC)cc3)ccc21 [BE-14, (R)-1-ethyl-N-(1-(4-(ethylsulfonyl)phenyl)-2-hydroxyethyl)-2-((4-(trifluoromethyl)benzyl)oxy)-1H-benzo[d]imidazole-5-carboxamide] |
| < 100 | < 100 | CCS(=O)(=O)c1ccc([C@H](CO)NC(=O)c2ccc3c(c2)nc(OCc2ccc(C(F)(F)F)cc2)n3C2CC2)cc1 [BE-15, (R)-1-cyclopropyl-N-(1-(4-(ethylsulfonyl)phenyl)-2-hydroxyethyl)-2-((4-(trifluoromethyl)benzyl)oxy)-1H-benzo[d]imidazole-5-carboxamide] |
| < 100 | < 100 | CCS(=O)(=O)c1ccc([C@H](CO)NC(=O)c2ccc3c(c2)nc(OCC2CCC(F)(F)CC2)n3C2CC2)cc1 [BE-16, (R)-1-cyclopropyl-2-((4,4-difluorocyclohexyl)methoxy)-N-(1-(4-(ethylsulfonyl)phenyl)-2-hydroxyethyl)-1H-benzo[d]imidazole-5-carboxamide] |
| < 100 | > 1000 | CCn1c(OCC2CC2)nc2cc(C(=O)N[C@@H](CO)c3ccc(S(=O)(=O)CC)cc3)ccc21 [BE-17, (R)-2-(cyclopropylmethoxy)-1-ethyl-N-(1-(4-(ethylsulfonyl)phenyl)-2-hydroxyethyl)-1H-benzo[d]imidazole-5-carboxamide] |
